Patent publication EP4028002B1, “AN ANTICANCER COMBINATION OF CHIDAMIDE AND CELECOXIB” (Great Novel Therapeutics Biotech & Medicals Corporation, priority 2019, dated 2021)

Experiments:
[1] = low solubility and high permeability; cited from earlier work
[2] = Saturation solubility study in ddH2O; assay type: physicochemical; details: 25°C, 90 minutes; for Saturation & Solubility: 100 rpm, mean ± SD of triplicates, per batch; for saturation solubility (water solubility): independent batches
Protocol: Determination of Saturation Solubility of Chidamide-HCl, Chidamide-H2SO4, and Celecoxib-Na Salts. Sample of 5 mg of chidamide-HCl, chidamide-H2SO4, or celecoxib-Na salts was added to 5 ml volumetric flasks containing ddH2O and shook at 100 rpm in an incubator at 25°C for 90 minutes. The resulting suspension was filtered through a 0.22 µm filter. The concentrations of chidamide-HCl, chidamide-H2SO4, and celecoxib-Na salts were determined spectrophotometrically at 256 nm, 256 nm, and 253 nm, respectively. The saturation solubility of each sample was determined in triplicates and the mean value and standard deviation were reported. Preparation of standard curves is described as below.

| Compound | BCS (biopharmaceutical classification system) class [1] | Saturation & Solubility [2] | saturation solubility (water solubility) [2] |
| --- | --- | --- | --- |
| Cc1ccc(-c2cc(C(F)(F)F)nn2-c2ccc(S(N)(=O)=O)cc2)cc1 [Celecoxib-API, 4-[5-(4-Methylphenyl)-3-(trifluoromethyl)pyrazol-1-yl]benzenesulfonamide] | class II | BDL | water-insoluble |
| Nc1cc(F)ccc1NC(=O)c1ccc(CNC(=O)/C=C/c2cccnc2)cc1 [Chidamide-API, 4-(((E)-3-(pyridin-3-yl)acrylamido)methyl)-N-(2-amino-4-fluorophenyl)benzamide] |  | BDL | water-insoluble |
